Assay results: ChEMBL document CHEMBL1147239, “New antioxidant C-glucosylxanthones from the stems of Arrabidaea samydoides” (J Nat Prod, 2003)

Tested on: Radical scavenging activity
Test: Antioxidant activity assessed as DPPH radical scavenging activity after 30 mins
Type: functional

IC50 [µM] | SMILES
31.4 | O=C(/C=C/c1ccccc1)O[C@@H]1[C@@H](O)[C@H](O)[C@@H](CO)O[C@H]1c1c(O)cc2oc3cc(O)c(O)cc3c(=O)c2c1O
32.7 | O=C(O[C@@H]1[C@@H](O)[C@H](O)[C@@H](CO)O[C@H]1c1c(O)cc2oc3cc(O)c(O)cc3c(=O)c2c1O)c1ccccc1
25.4 | O=C(/C=C/c1ccc(O)cc1)O[C@@H]1[C@@H](O)[C@H](O)[C@@H](CO)O[C@H]1c1c(O)cc2oc3cc(O)c(O)cc3c(=O)c2c1O
17.8 | O=C(/C=C/c1ccc(O)c(O)c1)O[C@@H]1[C@@H](O)[C@H](O)[C@@H](CO)O[C@H]1c1c(O)cc2oc3cc(O)c(O)cc3c(=O)c2c1O
35 | O=c1c2cc(O)c(O)cc2oc2cc(O)c([C@@H]3O[C@H](CO)[C@@H](O)[C@H](O)[C@H]3O)c(O)c12 [MANGIFERIN]
30.7 | O=C(O[C@@H]1[C@@H](O)[C@H](O)[C@@H](CO)O[C@H]1c1c(O)cc2oc3cc(O)c(O)cc3c(=O)c2c1O)c1ccc(O)cc1 [MURAXANTHONE]
12.3 | C[C@@H]1O[C@@H](OC[C@H]2O[C@@H](Oc3c(-c4ccc(O)c(O)c4)oc4cc(O)cc(O)c4c3=O)[C@H](O)[C@@H](O)[C@@H]2O)[C@H](O)[C@H](O)[C@H]1O [RUTIN]
